The values that follow are results of earlier work, collected in US20240358662A1, “COMPOSITIONS, METHODS AND SYSTEMS FOR AEROSOL DRUG DELIVERY” (ASTRAZENECA PHARMACEUTICALS LP, priority 2021, published 2024).

The conditions of this data set: for Latent Heat @ Boiling Point: at boiling point.

Consider `FCC(F)(F)F` [HFA-134a, 1,1,1,2-tetrafluoroethane], for which the “Liquid Density @ 20° C.” value was 1.23 g/mL, the “Liquid Viscosity @ 20° C. (mPa · S)” value is reported as 0.211 mPa · S, the “Surface Tension @ 20° C. (mN/m)” value was 8.09 mN/m and the “Vapor Pressure @ 20° C. (kPa)” value is listed as 570 kPa. Also, the “Latent Heat @ 25° C.” value is on record as 177.7 kJ/kg and the “Latent Heat @ Boiling Point” value is on record as 216.7 kJ/kg.

As for `FC(C(F)(F)F)C(F)(F)F` [HFA-227ea, 1,1,1,2,3,3,3-Heptafluoropropane], the “Liquid Density @ 20° C.” value was 1.41 g/mL, the “Liquid Viscosity @ 20° C. (mPa · S)” value is reported as 0.267 mPa · S, the “Surface Tension @ 20° C. (mN/m)” value is 7.50 mN/m and the “Vapor Pressure @ 20° C. (kPa)” value is recorded as 390 kPa. Besides, the “Latent Heat @ 25° C.” value was 110.97 kJ/kg and the “Latent Heat @ Boiling Point” value is on record as 131.4 kJ/kg.

As to `CC(F)F` [HFC-152a, 1,1-Difluoroethane], the “Liquid Density @ 20° C.” value was 0.91 g/mL, the “Liquid Viscosity @ 20° C. (mPa · S)” value is 0.171 mPa · S, the “Surface Tension @ 20° C. (mN/m)” value is listed as 10.4 mN/m and the “Vapor Pressure @ 20° C. (kPa)” value is given as 510 kPa. Further, the “Latent Heat @ 25° C.” value was 279.1 kJ/kg and the “Latent Heat @ Boiling Point” value is 318.4 kJ/kg.

On to `C=C(F)C(F)(F)F` [HFO-1234yf, 2,3,3,3-Tetrafluoropropene], for which the “Liquid Density @ 20° C.” value was 1.11 g/mL, the “Liquid Viscosity @ 20° C. (mPa · S)” value was 0.164 mPa · S, the “Surface Tension @ 20° C. (mN/m)” value is reported as 6.8 mN/m and the “Vapor Pressure @ 20° C. (kPa)” value is reported as 592 kPa. Also, the “Latent Heat @ 25° C.” value is recorded as 145.4 kJ/kg and the “Latent Heat @ Boiling Point” value is listed as 180.5 kJ/kg.

For `FC=CC(F)(F)F` [HFO-1234ze, 1,3,3,3-tetrafluoropropene], the “Liquid Density @ 20° C.” value is 1.18 g/mL, the “Liquid Viscosity @ 20° C. (mPa · S)” value was 0.206^3 mPa · S, the “Surface Tension @ 20° C. (mN/m)” value is 8.9 mN/m and the “Vapor Pressure @ 20° C. (kPa)” value is on record as 427 kPa. In addition, the “Latent Heat @ 25° C.” value was 166.8 kJ/kg and the “Latent Heat @ Boiling Point” value is reported as 195.43 kJ/kg.
